Publication PMC7606262 (Molecular genetics and metabolism, 2020)
Positions count from the first letter of the chain named.

How the values were obtained:
[1] = target: T1, LCAD (long-chain acyl-CoA dehydrogenase) (Homo sapiens, UniProt P28330); assay: acyl-CoA oxidase assay; type: biochemical; conditions: oxygen as electron acceptor; 50 mM phosphate pH 7.0, 30 °C
T1 sequence (P28330 31-430): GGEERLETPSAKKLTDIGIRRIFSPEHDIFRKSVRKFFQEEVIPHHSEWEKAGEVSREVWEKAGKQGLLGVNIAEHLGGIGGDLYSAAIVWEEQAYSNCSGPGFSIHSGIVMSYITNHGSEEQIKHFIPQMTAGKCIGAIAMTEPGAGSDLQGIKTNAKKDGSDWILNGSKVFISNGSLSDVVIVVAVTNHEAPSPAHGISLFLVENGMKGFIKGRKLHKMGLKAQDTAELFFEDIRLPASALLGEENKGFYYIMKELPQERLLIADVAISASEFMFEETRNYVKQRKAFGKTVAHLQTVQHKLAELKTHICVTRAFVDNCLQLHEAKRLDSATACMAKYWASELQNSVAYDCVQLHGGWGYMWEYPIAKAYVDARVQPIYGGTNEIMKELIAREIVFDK

[2] = target: T2, LCAD (long-chain acyl-CoA dehydrogenase) (Homo sapiens, UniProt P28330, K333Q); assay: acyl-CoA oxidase assay; type: biochemical; conditions: oxygen as electron acceptor; 50 mM phosphate pH 7.0, 30 °C
T2 sequence (P28330 31-430 K333Q): T1 sequence (P28330 31-430) with K303Q

[3] = target: T1, LCAD (long-chain acyl-CoA dehydrogenase); assay: absorbance scan, A443/A280 FAD content; type: binding; conditions: 100 uM free FAD, 37 °C, 20 min, then dialysis; non-covalent FAD

Compound: CCCCCCCCCCCCCCCCCC(=O)SCCNC(=O)CCNC(=O)[C@H](O)C(C)(C)COP(=O)(O)OP(=O)(O)OC[C@H]1O[C@@H](n2cnc3c(N)ncnc32)[C@H](O)[C@@H]1OP(=O)(O)O [C18-CoA, stearoyl-CoA]
- acyl-CoA oxidase assay (HRP / Amplex UltraRed fluorescence, H2O2) [1]: C18-CoA was used as substrate as this chain length produces the highest H2O2 production
- acyl-CoA oxidase assay (HRP / Amplex UltraRed fluorescence, H2O2) [2]: the presence of the K333Q substitution significantly reduced oxidase activity

Compound: Cc1cc2nc3c(=O)[nH]c(=O)nc-3n(C[C@H](O)[C@H](O)[C@H](O)COP(=O)(O)OP(=O)(O)OC[C@H]3O[C@@H](n4cnc5c(N)ncnc54)[C@H](O)[C@@H]3O)c2cc1C [FAD]
- A443/A280 [3]: After incubation of wild-type LCAD with FAD, the A443/A280 ratio, an indicator of enzyme-bound FAD
